Values joined by “and” are separate entries in the source; they are usually repeats but may differ in a detail not shown here. Equal values may be shown once.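 Test compounds were applied to cells in 96-well plates for 48 hours at 5 doses. GI50: concentration for 50% inhibition of growth. TGI marks complete inhibition of growth.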
Legend:
Assay in all cases: NCI anticancer screen, dose series, 48 h
EKVX NSCLC = system: EKVX NSCLC
KM12 colon = system: KM12 colon
NCI-H226 lung = system: NCI-H226 lung
NCI/ADR-RES ovarian = system: NCI/ADR-RES ovarian
RPMI-8226 leukemia = system: RPMI-8226 leukemia
SF-268 CNS = system: SF-268 CNS
SF-539 CNS = system: SF-539 CNS
SK-MEL-5 melanoma = system: SK-MEL-5 melanoma
T-47D breast = system: T-47D breast
UO-31 renal = system: UO-31 renal

Structure (SMILES)	TGI (EKVX NSCLC) [µM]	TGI (KM12 colon) [µM]	TGI (NCI-H226 lung) [µM]	TGI (NCI/ADR-RES ovarian) [µM]	TGI (RPMI-8226 leukemia) [µM]	TGI (SF-268 CNS) [µM]	TGI (SF-539 CNS) [µM]	TGI (SK-MEL-5 melanoma) [µM]	TGI (T-47D breast) [µM]	TGI (UO-31 renal)	GI50 (EKVX NSCLC) [µM]	GI50 (KM12 colon)	GI50 (NCI-H226 lung) [µM]	GI50 (NCI/ADR-RES ovarian) [µM]	GI50 (RPMI-8226 leukemia)	GI50 (SF-268 CNS) [µM]	GI50 (SF-539 CNS) [µM]	GI50 (SK-MEL-5 melanoma)	GI50 (T-47D breast) [µM]	GI50 (UO-31 renal)
Cc1cc2c(cc1Cl)SSc1cc(Cl)c(C)cc1S(=O)(=O)Nc1nc(N)nn1C(O)n1nc(N)nc1NS2(=O)=O	> 10	> 10	> 10	> 10	> 10	> 10	> 10	> 10	> 10	> 10 µM										
c1ccc(CCCN2C3CCC2CN(CCOC(c2ccccc2)c2ccccc2)C3)cc1	19.9	24.2	25.9	21.3	7.83	29.2	22.4	11.8	13.9	24.8 µM										
COc1ccccc1C1C(C#N)=C(N)SC(N)=C1C#N	> 100	> 100	75.8	> 100	32.9	> 100	> 100	> 100	> 100	> 100 µM	> 100	37.8 µM	25.6	43.9	12.3 µM	48.9	90.7	90.5 µM	35.5	82.5 µM
CCOC(=O)c1nc(SC)sc1NC(=O)c1ccc(OC)cc1	> 100	> 100	> 100	> 100	> 100	> 100	34.9	> 100	> 100	> 100 µM										
COC(=O)[C@H](Cc1ccccc1)NC(=O)N(CCN(CCC#N)C(=O)N[C@H](C(=O)OC)C(C)C)c1ccccc1	> 100	> 100	> 100	> 100	> 100	> 100	> 100	> 100	> 100	> 100 µM										
CCOC(=O)Cn1nnc2ccc(Nc3nc4ccccc4nc3C(=O)OCC)cc21	> 100	> 100	> 100	> 100	> 100	> 100	91.8	> 100	> 100	> 100 µM										
Nc1nc(N)c2cc(-c3cc4ccccc4[nH]3)ccc2n1	95	43.5	93.7	> 100	32.4	95.5	51.7	30.2	21.7	32.9 µM										
CN(C)CC1CCC/C(=C\c2ccc(Cl)c(Cl)c2)C1=O (centres undefined)	25.5	4.04	24.5	22.8	1.03	8.88	12.5	22.7	5.71	5.99 µM										
COc1cc(/C=C2\CC3C4CC=C5C[C@@H](O)CC[C@]5(C)C4CC[C@]3(C)\C2=N\O)cc(OC)c1OC (some centres undefined)	> 100	23.5	60.9	74.3	40	> 100	34.7	19.2	18.8	11.1 µM										
O=S(=O)(O)c1cc(O)c(N=NC2S(=O)(=O)OCCOS2(=O)=O)c2ccccc12	> 100	> 100	> 100	> 100	> 100	> 100	> 100	> 100	> 100	> 100 µM										
CCCCOc1ccc(/C=C/C2=[N+](CCO)CCO2)cc1	> 100	> 100	70	> 100	74.7	> 100	96.2	> 100	82.8	> 100 µM										
CC(C)(C)OC(=O)C1C(=O)NC(=O)CC1C(OCc1ccccc1)C(OCc1ccccc1)C(COCc1ccccc1)OCc1ccccc1 (centres undefined)	> 100	> 100	> 100	> 100	> 100	> 100	> 100	> 100	14.6	> 100 µM and 30.3 µM		> 100 µM and 24.5 µM			78.7 µM and 23 µM			> 100 µM and 28.4 µM		42.6 µM and 10.5 µM
CN(C)CCNc1c(O)c2c(c(O)c1Cl)C(=O)C=CC2=O	7.69	3.39	50.1	7.08	8.14	35.2	3.28	2.88	4.38	4.75 µM										
COc1nc2ncc([C@@H](OC(C)=O)[C@@H](COC(C)=O)OC(C)=O)nc2c(=O)n1C	> 100	> 100	> 100	> 100	> 100	> 100	> 100	> 100	> 100	> 100 µM										
CC1=C[C@H](C[C@]2(C)c3c(c4c(C)cccc4oc3=O)O[C@@H]2C)OC1=O	> 100	> 100	> 100	> 100	18.1	63.4	> 100	> 100	> 100	> 100 µM										
Cc1ccc(S(=O)(=O)N(CC(O)COc2ccccc2)c2c(F)c(F)c(F)c(F)c2F)cc1 (centres undefined)	35.3	> 100	42.7	35.1	12.7	30.9	34.4	25.5	52.4	25.1 µM										

Reference: PubChem BioAssay (NCI)
